{
  "source": "patent US20170143608A1",
  "about": "“SKIN COLOR-IMPROVING AGENT AND COMPOSITION FOR IMPROVING SKIN COLOR” (priority 2014, published 2017)",
  "key": {"[1]": {"system": "UDP-glucuronosyltransferase gene (UGT1A1 gene)", "test": "Expression promoting effect on UDP-glucuronosyltransferase gene in NB1-RGB cells (quantitative real-time PCR)", "type": "cell-based, human", "details": "for Relative gene expression level UGT1A1: final concentration 0.2 μm, 72 hours, standardized to GAPDH, 50% ethanol control = 1.00; for expression promoting effect on UGT1A1 gene compared to dl-α-tocopherol acetate group (in words): compared to the group in which dl-α-tocopherol acetate was added", "procedure": "(§1) Specifically, the NB1-RGB cells were prepared at a seeding density of 10,000 cells/cm^2, and were cultured for 24 hours in a DMEM medium containing 10% fetal bovine serum. […] In addition, one obtained by adding only 50% ethanol to the medium of cells was used as the control.\n(§2) Next, all RNA was extracted from each cell, cDNA was synthesized, quantitative real-time PCR was performed using this cDNA as a template, and the expression levels of the HO-1 gene and UGT1A1 gene were quantified."}, "[2]": {"system": "heme oxygenase gene (HO-1 gene)", "test": "Expression promoting effect on heme oxygenase gene in NB1-RGB cells (quantitative real-time PCR)", "details": "for Relative gene expression level HO-1: final concentration 0.2 μm, 72 hours, standardized to GAPDH, 50% ethanol control = 1.00; for expression promoting effect on HO-1 gene compared to dl-α-tocopherol acetate group (in words): compared to the group in which dl-α-tocopherol acetate was added", "procedure": "as §1, §2"}},
  "data": [
    {"smiles": "CC(=O)Oc1c(C)c(C)c2c(c1C)CCC(C)(CCCC(C)CCCC(C)CCCC(C)C)O2", "note": "(racemic) [dl-α-tocopherol acetate, reference compound]", "values": [
      {"measurement": "Relative gene expression level UGT1A1", "setting": "[1]", "value": 34.84},
      {"measurement": "Relative gene expression level HO-1", "setting": "[2]", "value": 0.97}
    ]},
    {"smiles": "Cc1c(C)c2c(c(C)c1OP(=O)([O-])[O-])CCC(C)(CCCC(C)CCCC(C)CCCC(C)C)O2.[Na+].[Na+]", "note": "(stereo not drawn) [sodium α-tocopheryl phosphate]", "values": [
      {"measurement": "expression promoting effect on UGT1A1 gene compared to the control (in words)", "setting": "[1]", "value": "expression promoting effect"},
      {"measurement": "expression promoting effect on UGT1A1 gene compared to dl-α-tocopherol acetate group (in words)", "setting": "[1]", "value": "higher expression promoting effect"},
      {"measurement": "Relative gene expression level UGT1A1", "setting": "[1]", "value": 59.11},
      {"measurement": "expression promoting effect on HO-1 gene compared to the control (in words)", "setting": "[2]", "value": "expression promoting effect"},
      {"measurement": "expression promoting effect on HO-1 gene compared to dl-α-tocopherol acetate group (in words)", "setting": "[2]", "value": "higher expression promoting effect"},
      {"measurement": "Relative gene expression level HO-1", "setting": "[2]", "value": 1.40}
    ]},
    {"smiles": "Cc1c(OP(=O)([O-])[O-])cc2c(c1C)O[C@](C)(CCC[C@H](C)CCC[C@H](C)CCCC(C)C)CC2.[Na+].[Na+]", "note": "[sodium γ-tocopheryl phosphate]", "values": [
      {"measurement": "expression promoting effect on UGT1A1 gene compared to the control (in words)", "setting": "[1]", "value": "expression promoting effect"},
      {"measurement": "expression promoting effect on UGT1A1 gene compared to dl-α-tocopherol acetate group (in words)", "setting": "[1]", "value": "higher expression promoting effect"},
      {"measurement": "Relative gene expression level UGT1A1", "setting": "[1]", "value": 42.98},
      {"measurement": "expression promoting effect on HO-1 gene compared to the control (in words)", "setting": "[2]", "value": "expression promoting effect"},
      {"measurement": "expression promoting effect on HO-1 gene compared to dl-α-tocopherol acetate group (in words)", "setting": "[2]", "value": "higher expression promoting effect"},
      {"measurement": "Relative gene expression level HO-1", "setting": "[2]", "value": 1.21}
    ]}
  ]
}
